In patent US8476264B2, “N-(3-(2-amino-6,6-difluoro-4,4A,5,6,7,7A-hexahydro-cyclopenta[E][1,3]oxazin-4-yl)-phenylamides as BACE1 inhibitors” (Hoffmann-La Roche Inc., priority 2011, dated 2013) one finds IC50 data, which are given here for 20 molecules.

T1 sequence (P56817 46-501): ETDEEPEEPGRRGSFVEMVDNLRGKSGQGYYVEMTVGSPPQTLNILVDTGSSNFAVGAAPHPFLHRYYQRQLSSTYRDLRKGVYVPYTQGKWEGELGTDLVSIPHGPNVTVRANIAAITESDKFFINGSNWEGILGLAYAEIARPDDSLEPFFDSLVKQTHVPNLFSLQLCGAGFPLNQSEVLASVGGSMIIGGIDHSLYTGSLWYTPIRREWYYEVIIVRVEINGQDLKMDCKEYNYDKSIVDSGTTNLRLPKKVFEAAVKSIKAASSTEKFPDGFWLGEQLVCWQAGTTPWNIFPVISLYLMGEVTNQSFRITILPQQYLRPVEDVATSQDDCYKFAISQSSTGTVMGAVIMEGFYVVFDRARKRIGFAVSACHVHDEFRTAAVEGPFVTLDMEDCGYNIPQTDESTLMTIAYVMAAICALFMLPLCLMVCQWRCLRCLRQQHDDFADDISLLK

This assay concerns the target T1, BACE1 (Homo sapiens, UniProt P56817).
T1 construct: Human HEK293 cells which are stably transfected with a vector expressing a cDNA of the human APP wt gene (APP695); endogenous in cells; host or cells: HEK293 stably transfected with human APP695 wt
Description: Cellular Aβ-lowering assay (Aβ40 ELISA). It counts as cell-based. To be noted: HEK293 cells stably expressing human APP wt (APP695); Aβ40 in supernatant after 18-20 hrs; read-out: BACE1 cell act. Aβ40 IC50. The protocol: Cellular Aβ-Lowering Assay:
Human HEK293 cells which are stably transfected with a vector expressing a cDNA of the human APP wt gene (APP695) were used to assess the potency of the compounds in a cellular assay. The cells were seeded in 96-well microtiter plates in cell culture medium (Iscove, plus 10% (v/v) fetal bovine serum, glutamine, penicillin/streptomycin) to about 80% confluence and the compounds were added at a 10× concentration in 1/10 volume of medium without FCS containing 8% DMSO (final concentration of DMSO was kept at 0.8% v/v). After 18-20 hrs incubation at 37° C. and 5% CO2 in a humidified incubator the culture supernatant was harvested for the determination of Aβ40 concentrations. 96 well ELISA plates (e.g., Nunc MaxiSorb) were coated with monoclonal antibody which specifically recognize the C-terminal end of Aβ40 (Brockhaus et al., NeuroReport 9, 1481-1486; 1998). After blocking of non-specific binding sites with e.g. 1% BSA and washing, the culture supernatants were added in suitable dilutions together with a horseradish peroxidase-coupled Aβ detection antibody (e.g., antibody 4G8, Senetek, Maryland Heights, Mo.) and incubated for 5 to 7 hrs. Subsequently the wells of the microtiter plate were washed extensively with Tris-buffered saline containing 0.05% Tween 20 and the assay was developed with tetramethylbenzidine/H2O2 in citric acid buffer. After stopping the reaction with one volume 1 N H2SO4 the reaction was measured in an ELISA reader at 450 nm wavelength. The concentrations of Aβ in the culture supernatants were calculated from a standard curve obtained with known amounts of pure Aβ peptide.
With `NC1=N[C@](CF)(c2cc(NC(=O)c3ccc(Cl)cn3)ccc2F)[C@H]2CC(F)(F)C[C@H]2O1` [Example 4, 5-Chloro-pyridine-2-carboxylic acid [(S)-3-((1R,2R)-2-amino-6,6-difluoro-4-fluoromethyl-4,4a,5,6,7,7a-hexahydro-cyclopenta[e][1,3]oxazin-4-yl)-4-fluoro-phenyl]-amide], the IC50 turned out to be 2 nM.
For `CC#CCOc1ccc(C(=O)Nc2ccc(F)c([C@@]3(CF)N=C(N)O[C@@H]4CC(F)(F)C[C@@H]43)c2)nc1` [Example 5, 5-But-2-ynyloxy-pyridine-2-carboxylic acid [(S)-3-((1R,2R)-2-amino-6,6-difluoro-4-fluoromethyl-4,4a,5,6,7,7a-hexahydro-cyclopenta[e][1,3]oxazin-4-yl)-4-fluoro-phenyl]-amide] the value was 0.8 nM; for `NC1=N[C@](CF)(c2cc(NC(=O)c3ncc(Cl)cc3Cl)ccc2F)[C@H]2CC(F)(F)C[C@H]2O1` [Example 6, 3,5-Dichloro-pyridine-2-carboxylic acid [(S)-3-((1R,2R)-2-amino-6,6-difluoro-4-fluoromethyl-4,4a,5,6,7,7a-hexahydro-cyclopenta[e][1,3]oxazin-4-yl)-4-fluoro-phenyl]-amide], 1.7 nM.
For `NC1=N[C@](CF)(c2cc(NC(=O)c3ncc(F)cc3F)ccc2F)[C@H]2CC(F)(F)C[C@H]2O1` [Example 8, 3,5-Difluoro-pyridine-2-carboxylic acid [(S)-3-((1R,2R)-2-amino-6,6-difluoro-4-fluoromethyl-4,4a,5,6,7,7a-hexahydro-cyclopenta[e][1,3]oxazin-4-yl)-4-fluoro-phenyl]-amide] the value was 16.9 nM; for `NC1=N[C@](CF)(c2cc(NC(=O)c3ccc(OCC(F)(F)F)cn3)ccc2F)[C@H]2CC(F)(F)C[C@H]2O1` [Example 9, 5-(2,2,2-Trifluoro-ethoxy)-pyridine-2-carboxylic acid [(S)-3-((1R,2R)-2-amino-6,6-difluoro-4-fluoromethyl-4,4a,5,6,7,7a-hexahydro-cyclopenta[e][1,3]oxazin-4-yl)-4-fluoro-phenyl]-amide], 17 nM; for `NC1=N[C@](CF)(c2cc(NC(=O)c3ccc(OCC(F)(F)C(F)(F)F)cn3)ccc2F)[C@H]2CC(F)(F)C[C@H]2O1` [Example 10, 5-(2,2,3,3,3-Pentafluoro-propoxy)-pyridine-2-carboxylic acid [(S)-3-((1R,2R)-2-amino-6,6-difluoro-4-fluoromethyl-4,4a,5,6,7,7a-hexahydro-cyclopenta[e][1,3]oxazin-4-yl)-4-fluoro-phenyl]-amide], 43 nM.
Take `NC1=N[C@](CF)(c2cc(NC(=O)c3ccc(OCC(F)(F)C(F)F)cn3)ccc2F)[C@H]2CC(F)(F)C[C@H]2O1` [Example 11, 5-(2,2,3,3-Tetrafluoro-propoxy)-pyridine-2-carboxylic acid [(S)-3-((1R,2R)-2-amino-6,6-difluoro-4-fluoromethyl-4,4a,5,6,7,7a-hexahydro-cyclopenta[e][1,3]oxazin-4-yl)-4-fluoro-phenyl]-amide]: the IC50 was determined as 14 nM.
For `NC1=N[C@](CF)(c2cc(NC(=O)c3ccc(OCC4CC4)cn3)ccc2F)[C@H]2CC(F)(F)C[C@H]2O1` [Example 12, 5-Cyclopropylmethoxy-pyridine-2-carboxylic acid [(S)-3-((1R,2R)-2-amino-6,6-difluoro-4-fluoromethyl-4,4a,5,6,7,7a-hexahydro-cyclopenta[e][1,3]oxazin-4-yl)-4-fluoro-phenyl]-amide] the value was 8.6 nM; for `NC1=N[C@](CF)(c2cc(NC(=O)c3ccc(OC(F)F)cn3)ccc2F)[C@H]2CC(F)(F)C[C@H]2O1` [Example 13, 5-Difluoromethoxy-pyridine-2-carboxylic acid [(S)-3-((1R,2R)-2-amino-6,6-difluoro-4-fluoromethyl-4,4a,5,6,7,7a-hexahydro-cyclopenta[e][1,3]oxazin-4-yl)-4-fluoro-phenyl]-amide], 3.5 nM; for `NC1=N[C@](CF)(c2cc(NC(=O)c3ccc(OCC(F)F)cn3)ccc2F)[C@H]2CC(F)(F)C[C@H]2O1` [Example 14, 5-(2,2-Difluoro-ethoxy)-pyridine-2-carboxylic acid [(S)-3-((1R,2R)-2-amino-6,6-difluoro-4-fluoromethyl-4,4a,5,6,7,7a-hexahydro-cyclopenta[e][1,3]oxazin-4-yl)-4-fluoro-phenyl]-amide], 23 nM.
For the molecule `NC1=N[C@](CF)(c2cc(NC(=O)c3ccc(C(F)(F)F)cn3)ccc2F)[C@H]2CC(F)(F)C[C@H]2O1` [Example 15, 5-Trifluoromethyl-pyridine-2-carboxylic acid [(S)-3-((1R,2R)-2-amino-6,6-difluoro-4-fluoromethyl-4,4a,5,6,7,7a-hexahydro-cyclopenta[e][1,3]oxazin-4-yl)-4-fluoro-phenyl]-amide], the IC50 stood at 2.8 nM.
Consider `NC1=N[C@](CF)(c2cc(NC(=O)c3ncc(C(F)(F)F)cc3Cl)ccc2F)[C@H]2CC(F)(F)C[C@H]2O1` [Example 16, 3-Chloro-5-trifluoromethyl-pyridine-2-carboxylic acid [(S)-3-((1R,2R)-2-amino-6,6-difluoro-4-fluoromethyl-4,4a,5,6,7,7a-hexahydro-cyclopenta[e][1,3]oxazin-4-yl)-4-fluoro-phenyl]-amide], for which the IC50 was 0.8 nM.
In the case of `NC1=N[C@](CF)(c2cc(NC(=O)c3ncc(C(F)(F)F)cc3F)ccc2F)[C@H]2CC(F)(F)C[C@H]2O1` [Example 17, 3-Fluoro-5-trifluoromethyl-pyridine-2-carboxylic acid [(S)-3-((1R,2R)-2-amino-6,6-difluoro-4-fluoromethyl-4,4a,5,6,7,7a-hexahydro-cyclopenta[e][1,3]oxazin-4-yl)-4-fluoro-phenyl]-amide] it was 4.1 nM; in that of `N#Cc1cnc(C(=O)Nc2ccc(F)c([C@@]3(CF)N=C(N)O[C@@H]4CC(F)(F)C[C@@H]43)c2)c(Cl)c1` [Example 19, 3-Chloro-5-cyano-pyridine-2-carboxylic acid [(S)-3-((1R,2R)-2-amino-6,6-difluoro-4-fluoromethyl-4,4a,5,6,7,7a-hexahydro-cyclopenta[e][1,3]oxazin-4-yl)-4-fluoro-phenyl]-amide], 5.5 nM; in that of `NC1=N[C@](CF)(c2cc(NC(=O)c3cnc(OC(F)F)cn3)ccc2F)[C@H]2CC(F)(F)C[C@H]2O1` [Example 21, 5-Difluoromethoxy-pyrazine-2-carboxylic acid [(S)-3-((1R,2R)-2-amino-6,6-difluoro-4-fluoromethyl-4,4a,5,6,7,7a-hexahydro-cyclopenta[e][1,3]oxazin-4-yl)-4-fluoro-phenyl]-amide], 0.9 nM.
In the case of `NC1=N[C@](CF)(c2cc(NC(=O)c3cnc(OCC(F)(F)F)cn3)ccc2F)[C@H]2CC(F)(F)C[C@H]2O1` [Example 22, 5-(2,2,2-Trifluoro-ethoxy)-pyrazine-2-carboxylic acid [(S)-3-((1R,2R)-2-amino-6,6-difluoro-4-fluoromethyl-4,4a,5,6,7,7a-hexahydro-cyclopenta[e][1,3]oxazin-4-yl)-4-fluoro-phenyl]-amide] it was 2.5 nM; in that of `NC1=N[C@](CF)(c2cc(NC(=O)c3cnc(OCC(F)F)cn3)ccc2F)[C@H]2CC(F)(F)C[C@H]2O1` [Example 23, 5-(2,2-Difluoro-ethoxy)-pyrazine-2-carboxylic acid [(S)-3-((1R,2R)-2-amino-6,6-difluoro-4-fluoromethyl-4,4a,5,6,7,7a-hexahydro-cyclopenta[e][1,3]oxazin-4-yl)-4-fluoro-phenyl]-amide], 7.8 nM; in that of `NC1=N[C@](CF)(c2cc(NC(=O)c3cnc(OCC4CC4)cn3)ccc2F)[C@H]2CC(F)(F)C[C@H]2O1` [Example 25, 5-Cyclopropylmethoxy-pyrazine-2-carboxylic acid [(S)-3-((1R,2R)-2-amino-6,6-difluoro-4-fluoromethyl-4,4a,5,6,7,7a-hexahydro-cyclopenta[e][1,3]oxazin-4-yl)-4-fluoro-phenyl]-amide], 15 nM.
`NC1=N[C@](CF)(c2cc(NC(=O)c3cnc(OCF)cn3)ccc2F)[C@H]2CC(F)(F)C[C@H]2O1` [Example 26, 5-Fluoromethoxy-pyrazine-2-carboxylic acid [(S)-3-((1R,2R)-2-amino-6,6-difluoro-4-fluoromethyl-4,4a,5,6,7,7a-hexahydro-cyclopenta[e][1,3]oxazin-4-yl)-4-fluoro-phenyl]-amide]: the IC50 was 3.5 nM.
In the case of `NC1=N[C@](CF)(c2cc(NC(=O)c3cnc(Cl)cn3)ccc2F)[C@H]2CC(F)(F)C[C@H]2O1` [Example 27, 5-Chloro-pyrazine-2-carboxylic acid [(S)-3-((1R,2R)-2-amino-6,6-difluoro-4-fluoromethyl-4,4a,5,6,7,7a-hexahydro-cyclopenta[e][1,3]oxazin-4-yl)-4-fluoro-phenyl]-amide] it was 660 nM.
